According to PMC6792352, “Limited Chemical Structural Diversity Found to Modulate Thyroid Hormone Receptor in the Tox21 Chemical Library” (Environmental Health Perspectives, 2019):
Counter-ions that a name gives are not always drawn.

Test: in vitro
Settings: rat, gh3-tre-luc cells

| Structure (SMILES) | CC50 at 24 h (AC50 (uM) modified / 1000) [µM] | other results |
| --- | --- | --- |
| N=C(N)c1ccc(/C=C/c2ccc(C(=N)N)cc2O)cc1 [Hydroxystilbamidine bis(methanesulfonate)] | > 50 | – |
| O=C(O)/C=C/c1ccc(Cn2ccnc2)cc1 [Ozagrel hydrochloride] | > 20 | – |
| C[C@]12C=CC(=O)C=C1[C@@H](F)C[C@@H]1[C@@H]2[C@@H](O)C[C@@]2(C)[C@H]1CC[C@]2(O)C(=O)CO [Fluprednisolone] | > 50 | – |
| C=CCN1CC[C@]23c4c5ccc(O)c4O[C@H]2C(=O)CC[C@@]3(O)[C@H]1C5 [Naloxone] | > 50 | – |
| CCC(=O)O[C@](Cc1ccccc1)(c1ccccc1)[C@H](C)CN(C)C [(2S,3R)-(+)-4-(Dimethylamino)-3-methyl-1,2-diphenyl-2-butanol propionate hydrochloride] | – | CC50 at 24 h (AC50 (uM) modified / 1000, Tox21_110001=Tox21_112860, viability, 1 nM T3 present, 24 h): 30.1 µM |
| CCOC(=O)O[C@H](C)OC(=O)c1ccc2c(c1)cc(C(=O)NC1CCN(C(C)C)CC1)n2Cc1cc(-c2ccc(Cl)s2)on1 [AVE6324] | 4.58 | – |
| CC(=O)c1ccc2ccccc2c1 [2'-Acetonaphthone] | > 90 | – |
| C=C1C[C@@H]2[C@H](CC[C@]3(C)C(=O)CC[C@@H]23)[C@@]2(C)C=CC(=O)C=C12 [Exemestane] | > 50 | – |
| O=C(O)c1cc(I)cc(I)c1I [2,3,5-Triiodobenzoic acid] | > 100 | – |
| CC/C=C/CCO [(E)-3-Hexen-1-ol] | > 90 | – |
| C=C(C)[C@@H]1CC[C@@H](C)C[C@H]1O [Isopulegol] | > 90 | – |
| O=C(O)c1cccc(Cl)c1 [3-Chlorobenzoic acid] | – | CC50 at 24 h (AC50 (uM) modified / 1000, Tox21_110001=Tox21_200325, viability, 1 nM T3 present, 24 h): > 90 µM |
| O=[N+]([O-])c1c(Cl)cccc1-c1c[nH]cc1Cl [Pyrrolnitrin] | 23.7 | – |
| COc1cc(CCC(C)=O)ccc1O [4-(4-Hydroxy-3-methoxyphenyl)-2-butanone] | > 90 | – |
| CCC1(C)NC(=O)NC1=O (stereo not drawn) [5-Ethyl-5-methylhydantoin] | > 90 | – |
| COc1cc(OC)nc(NC(=O)NS(=O)(=O)c2ncccc2OCC(F)(F)F)n1 [Trifloxysulfuron-sodium] | – | CC50 at 24 h (AC50 (uM) modified / 1000, Tox21_110001=Tox21_301184, viability, 1 nM T3 present, 24 h): > 90 µM |
| N#Cc1c2ccccc2cc2ccccc12 [9-Cyanoanthracene] | > 90 | – |
| Cc1ccccc1CCO [2-Methylphenethyl alcohol] | > 90 | – |
| CCc1cnc(C2=NC(C)(C(C)C)C(=O)N2)c(C(=O)O)c1 (stereo not drawn) [Imazethapyr] | > 90 | – |
| CCn1nc(C(=O)O)c(=O)c2cc3c(cc21)OCO3 [Cinoxacin] | > 20 | – |
| C=C(C)C(=O)OCCCCOC(=O)C(=C)C [Butane-1,4-diyl bis(2-methylprop-2-enoate)] | > 90 | – |

| Structure (SMILES) | CC50 at 24 h (AC50 (uM) modified / 1000) [µM] | other results |
| --- | --- | --- |
| O=S(=O)(O)CCS [Sodium 2-mercaptoethanesulfonate] | > 90 | – |
| COc1cc(/C=C/c2ccccc2)oc(=O)c1 [Desmethoxyyangonin] | > 90 | – |
| NS(=O)(=O)c1cc2c(cc1C(F)(F)F)NCNS2(=O)=O [Hydroflumethiazide] | > 20 | – |
| O=C(O)C(=O)Nc1cccc(-c2nnn[nH]2)c1 [Acitazanolast] | > 50 | – |
| CC(C)N=C=NC(C)C [Diisopropylcarbodiimide] | > 90 | – |
| C[C@H]1O[C@H](O[C@H]2[C@H](O)[C@@H](O)[C@@H](O)[C@H](O)[C@@H]2O)[C@@H](N)C[C@@H]1NC(=N)C(=O)O [Kasugamycin hydrochloride] | > 90 | – |
| O=C(O)c1ccccc1Nc1cccc(C(F)(F)F)c1 [Flufenamic acid] | > 50 | – |
| C=CCCC(=O)O [4-Pentenoic acid] | > 90 | – |
| CCCCCCCCCCOC(C)=O [Decyl acetate] | > 90 | – |
| C#CCC1=C(C)C(OC(=O)C2C(C=C(C)C)C2(C)C)CC1=O (stereo not drawn) [Prallethrin] | 66.6 | – |
| OCC(S)CS (stereo not drawn) [Dimercaprol] | 12.5 | – |
| CO/N=C(\C(=O)N[C@@H]1C(=O)N2C(C(=O)[O-])=C(C[n+]3cccc4c3CCC4)CS[C@H]12)c1csc(N)n1 [Cefpirome sulfate] | > 50 | – |
| CC(=O)CCC=C(C)C [6-Methyl-5-hepten-2-one] | > 90 | – |
| COc1cc(/C=C/C(=O)O[C@H]2CC[C@]34C[C@]35CC[C@]3(C)[C@@H]([C@H](C)CCC=C(C)C)CC[C@@]3(C)[C@@H]5CC[C@H]4C2(C)C)ccc1O [gamma-Oryzanol] | > 50 | – |
| COc1ccc(C(CN(C)C)C2(O)CCCCC2)cc1 (stereo not drawn) [Venlafaxine hydrochloride] | > 90 | – |
| CCOc1cc(C=O)ccc1O [3-Ethoxy-4-hydroxybenzaldehyde] | > 50 | – |
| CC1CCC(CO)CC1 (stereo not drawn) [4-Methylcyclohexanemethanol] | > 90 | – |
| O=C(Nc1ccc2[nH]ccc2c1)c1cc2cc(F)ccc2n1Cc1cccc(F)c1 [SAR115740] | 14.6 | – |
| Oc1cc(Cl)c(Cl)c(Cl)c1 [3,4,5-Trichlorophenol] | 29.9 | – |
| CCCC[n+]1ccccc1 [1-Butylpyridinium hexafluorophosphate] | > 90 | – |
| CCCC(=O)OC(=O)CCC [Butanoic anhydride] | > 90 | – |

| Structure (SMILES) | CC50 at 24 h (AC50 (uM) modified / 1000) [µM] | other results |
| --- | --- | --- |
| O=C(O)c1ccc2c(c1)C(=O)OC2=O [Trimellitic anhydride] | > 90 | – |
| CC(=O)OC1CCCCC1C(C)(C)C (stereo not drawn) [2-tert-Butylcyclohexyl acetate] | > 90 | – |
| Nc1ccc(O)c([N+](=O)[O-])c1 [4-Amino-2-nitrophenol] | > 90 | – |
| CCC(C)n1ncn(-c2ccc(N3CCN(c4ccc(OC[C@H]5CO[C@](Cn6cncn6)(c6ccc(Cl)cc6Cl)O5)cc4)CC3)cc2)c1=O (mixture of isomers) [Itraconazole] | 3.2 | – |
| O=[N+]([O-])c1cc(C(F)(F)F)c(Cl)c([N+](=O)[O-])c1Nc1ncc(C(F)(F)F)cc1Cl [Fluazinam] | 4.25 | – |
| CCC1(c2ccccc2)C(=O)N(COC)C(=O)N(COC)C1=O [Eterobarb] | – | CC50 at 24 h (AC50 (uM) modified / 1000, Tox21_110001=Tox21_110991, viability, 1 nM T3 present, 24 h): > 50 µM |
| OCCOc1ccc(OCCO)cc1 [2,2'-[1,4-Phenylenebis(oxy)]diethanol] | > 90 | – |
| CN(C(=O)c1c(O)c2ccccc2n(C)c1=O)c1ccccc1 [Roquinimex] | > 50 | – |
| CCOC(=O)c1ccccc1O [Ethyl salicylate] | > 50 | – |
| CCCCCOC(=O)CCCCC [Pentyl hexanoate] | > 90 | – |
| CC(C)c1ccc(NC(=O)N(C)C)cc1 [Isoproturon] | > 90 | – |
| O=C(O)c1cc(Cl)cc(Cl)c1O [3,5-Dichlorosalicylic acid] | > 90 | – |
| N[C@@H](CSCC(=O)O)C(=O)O [Carbocysteine] | > 50 | – |
| COC(=O)c1c(Cl)c(Cl)c(C(=O)OC)c(Cl)c1Cl [Chlorthal-dimethyl] | > 90 | – |
| FC(F)(F)c1cccc(C2=CCN(CCc3ccc4ccncc4c3)CC2)c1 [SSR150106] | 76.9 | – |
| CN(C)CCCN [3-(Dimethylamino)propylamine] | > 90 | – |
| CCCCOC(=O)C(=O)OCCCC [Dibutyl ethanedioate] | > 90 | – |
| CCC(C)OC(=O)N1CCCCC1CCO (stereo not drawn) [Icaridin] | > 90 | – |
| CO[C@H]1[C@@H](O)C[C@H](O[C@H]2[C@@H](O)C[C@H](O[C@H]3[C@@H](O)C[C@H](O[C@H]4CC[C@@]5(C)[C@H](CC[C@@H]6[C@@H]5C[C@@H](O)[C@]5(C)[C@@H](C7=CC(=O)OC7)CC[C@]65O)C4)O[C@@H]3C)O[C@@H]2C)O[C@@H]1C [Methyldigoxin] | > 50 | – |
| CCSCc1ccccc1OC(=O)NC [Ethiofencarb] | – | CC50 at 24 h (AC50 (uM) modified / 1000, Tox21_110001=Tox21_301356, viability, 1 nM T3 present, 24 h): > 90 µM |
| O=C(O)c1cc(/N=N/c2ccc(S(=O)(=O)Nc3ccccn3)cc2)ccc1O [Sulfasalazine] | > 90 | – |
